Results taken from ChEMBL document CHEMBL2046327, “Jomthonic acid , a modified amino acid from a soil-derived Streptomyces” (J Nat Prod, 2012).
Calls of active or inactive are those of the source. The rule behind the calls is not given here.

Experiments:
ST-13 = assay: Induction of mouse ST-13 cell differentiation into mature adipocyte at 2 to 50 uM; type: functional, cell-based
[1] = Induction of mouse ST-13 cell differentiation into mature adipocyte at 50 uM; type: functional
MCF7 = assay: Cytotoxicity against human MCF7 cells after 48 hrs by MTT assay; type: functional, cell-based; conditions: MCF7, 48 h
Escherichia coli = assay: Antimicrobial activity against Escherichia coli NIH-JC2 after 20 hrs by microplate reader; type: functional; conditions: NIH-JC2, 20 h
Micrococcus luteus = assay: Antimicrobial activity against Micrococcus luteus ATCC 9343 after 20 hrs by microplate reader; type: functional; conditions: ATCC 9343, 20 h
Candida albicans = assay: Antimicrobial activity against Candida albicans IFO1594 after 20 hrs by microplate reader; type: functional; conditions: IFO1594, 20 h

With `C/C=C(C)/C=C/C(=O)N[C@H](C(=O)O[C@H](C)[C@@H](C)C(=O)O)[C@H](C)c1ccccc1` [JOMTHONIC ACID A] the Activity (ST-13) was “Active”, the Activity [1] was 80% and the IC50 (MCF7) was greater than 100 µM. For the same compound, the MIC (Escherichia coli) was greater than 50 mg/L, the MIC (Micrococcus luteus) was greater than 50 mg/L and the MIC (Candida albicans) was greater than 50 mg/L.
